Test results from patent US4656166A, “Antibiotic compounds derived from cephalosporins, process for their production and pharmaceutical compositions” (Sanofi, priority 1983, dated 1987).
Values after ≈ are worked out from the molar mass of the structure shown. Read-outs that look alike come from different tables or passages of the source.

Columns and labels:
Format in all cases: cell-based
[1] = tested on: Escherichia coli SOL 90; assay: MIC, in vitro dilution method, Escherichia coli SOL 90 (Table III); settings: SOL90
Summary of the method: (§1)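 MIC in μg/ml, taken as the minimum concentration giving bacteriostatic action in an in vitro dilution assay on Gram-negative bacteria.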

[2] = tested on: Citrobacter RL 49; assay: MIC, in vitro dilution method, Citrobacter RL 49 (Table III); settings: RL49
Summary of the method: as §1

[3] = tested on: Proteus vulgaris RL 99 bis; assay: MIC, in vitro dilution method, Proteus vulgaris RL 99 bis (Table III); settings: RL99BIS
Summary of the method: as §1

[4] = tested on: Serratia RL 72; assay: MIC, in vitro dilution method, Serratia RL 72 (Table III); settings: RL72
Summary of the method: as §1

[5] = tested on: Klebsiella RO 30; assay: MIC, in vitro dilution method, Klebsiella RO 30 (Table III); settings: RO30
Summary of the method: as §1

[6] = tested on: Enterobacter RO 154; assay: MIC, in vitro dilution method, Enterobacter RO 154 (Table III); settings: RO154
Summary of the method: as §1

[7] = tested on: Pseudomonas RL 112; assay: MIC, in vitro dilution method, Pseudomonas RL 112 (Table III); settings: RL112
Summary of the method: as §1

[8] = tested on: Escherichia coli 255; assay: MIC on beta-lactamase producing strain Escherichia coli 255 (Table IV); settings: Escherichia coli 255, producing beta-lactamases; read-out: MIC
Description: (§2) To evaluate the stability of these products towards beta-lactamases, their MIC was determined on isogenic strains producing and not producing beta-lactamases.
(§3) The results are expressed in μg/ml in Table IV.

[9] = tested on: Escherichia coli 255/L.7; assay: MIC on strain not producing beta-lactamase, Escherichia coli 255/L.7 (Table IV); settings: Escherichia coli 255/L.7 *, not producing beta-lactamases; read-out: MIC
Description: as §2, §3

[10] = tested on: Serrtia liquefaciens SL/326 A; assay: MIC on beta-lactamase producing strain Serratia liquefaciens SL/326 A (Table IV)
Description: as §2, §3

[11] = tested on: Serrtia liquefaciens SL 1326 S; assay: MIC on strain not producing beta-lactamase, Serratia liquefaciens SL 1326 S (Table IV); settings: SL1326S, not producing beta-lactamases
Description: as §2, §3

[12] = tested on: Proteus vulgaris GN 76/C.1; assay: MIC on beta-lactamase producing strain Proteus vulgaris GN 76/C.1 (Table IV); settings: GN76
Description: as §2, §3

[13] = tested on: Proteus vulgaris GN 76/C.1/3; assay: MIC on strain not producing beta-lactamase, Proteus vulgaris GN 76/C.1/3 (Table IV); settings: GN76, not producing beta-lactamases
Description: as §2, §3

[14] = Escherichia coli SOL 90, dilution method, read-out: MIC
[15] = Klebsiella RO 30, dilution method, read-out: MIC
[16] = Enterobacter RO 154, dilution method, read-out: MIC
[17] = Citrobacter RL 49, dilution method, read-out: MIC
[18] = Proteus vulgaris RL 99 bis, dilution method, read-out: MIC
[19] = Proteus vulgaris GN 76/C.1, producing beta-lactamases, read-out: MIC

Compound | MIC [1, 14] [µg/mL] | MIC ([2]; Citrobacter) [µg/mL] | MIC ([3]; Proteus vulgaris) [µg/mL] | MIC [4] [µg/mL] | MIC [5, 15] [µg/mL] | MIC [6, 16] [µg/mL] | MIC [7] [µg/mL] | MIC [8] [µg/mL] | MIC [9] [µg/mL] | MIC [10] [µg/mL] | MIC [11] [µg/mL] | MIC ([12]; Proteus vulgaris) [µg/mL] | MIC [13] [µg/mL] | MIC [2, 17] [µg/mL] | MIC [3, 18] [µg/mL] | MIC [12, 19] [µg/mL] | MIC ([1]; Escherichia coli) [µg/mL] | MIC ([5]; Klebsiella) [µg/mL] | MIC ([6]; Enterobacter) [µg/mL]
CC(C)(O/N=C(\C(=O)NC1C(=O)N2C(C(=O)O)=C(COC(=O)c3ccc(NC(=O)CN)cc3)C[S+]([O-])C12)c1csc(N)n1)C(=O)O (centres unmarked) [42 467] | 0.25 (≈ 0.369 µM) | ≤ 0.125 | ≤ 0.125 | 2 (≈ 2.95 µM) | 0.25 (≈ 0.369 µM) | 0.5 (≈ 0.738 µM) | 4 (≈ 5.9 µM) | 0.0625 (≈ 0.0922 µM) | ≤ 0.0312 | 0.125 (≈ 0.184 µM) | 0.125 (≈ 0.184 µM) | ≤ 0.0312 | 0.0625 (≈ 0.0922 µM) | – | – | – | – | – | –
CC(C)(O/N=C(\C(=O)NC1C(=O)N2C(C(=O)O)=C(COC(=O)CCCCN)C[S+]([O-])C12)c1csc(N)n1)C(=O)O (centres unmarked) [41 967] | 0.25 (≈ 0.416 µM) | – | – | 0.5 (≈ 0.832 µM) | 0.25 (≈ 0.416 µM) | 2 (≈ 3.33 µM) | 4 (≈ 6.66 µM) | ≤ 0.12 | ≤ 0.12 | 0.25 (≈ 0.416 µM) | ≤ 0.12 | – | ≤ 0.12 | 0.5 (≈ 0.832 µM) | ≤ 0.12 | ≤ 0.12 | – | – | –
Cc1c(CN)cccc1C(=O)SCC1=C(C(=O)O)N2C(=O)C(NC(=O)C(=NOC(C)(C)C(=O)O)c3csc(N)n3)C2[S+]([O-])C1 (centres unmarked) [compound 42535] | 0.5 (≈ 0.752 µM) | – | ≤ 0.125 | 1 (≈ 1.5 µM) | 0.25 (≈ 0.376 µM) | 0.5 (≈ 0.752 µM) | 8 (≈ 12 µM) | 0.125 (≈ 0.188 µM) | ≤ 0.0312 | 0.0625 (≈ 0.094 µM) | 0.125 (≈ 0.188 µM) | 0.0625 (≈ 0.094 µM) | 0.125 (≈ 0.188 µM) | 0.25 (≈ 0.376 µM) | – | – | – | – | –
CNCc1ccc(C(=O)SCC2=C(C(=O)O)N3C(=O)C(NC(=O)C(=NOC(C)(C)C(=O)O)c4csc(N)n4)C3[S+]([O-])C2)cc1 (centres unmarked) [compound 42533] | 0.5 (≈ 0.752 µM) | – | ≤ 0.125 | 1 (≈ 1.5 µM) | 0.25 (≈ 0.376 µM) | 0.5 (≈ 0.752 µM) | 8 (≈ 12 µM) | 0.125 (≈ 0.188 µM) | 0.0625 (≈ 0.094 µM) | 0.125 (≈ 0.188 µM) | ≤ 0.0312 | 0.0625 (≈ 0.094 µM) | 0.125 (≈ 0.188 µM) | 0.25 (≈ 0.376 µM) | – | – | – | – | –
CC(C)(O/N=C(\C(=O)NC1C(=O)N2C(C(=O)O)=C(COC(=O)c3csc(NC(=O)CN)n3)C[S+]([O-])C12)c1csc(N)n1)C(=O)O (centres unmarked) [42 466] | 0.5 (≈ 0.73 µM) | – | ≤ 0.125 | 2 (≈ 2.92 µM) | 0.5 (≈ 0.73 µM) | 0.5 (≈ 0.73 µM) | 4 (≈ 5.84 µM) | 0.125 (≈ 0.183 µM) | 0.125 (≈ 0.183 µM) | 1 (≈ 1.46 µM) | ≤ 0.0312 | ≤ 0.0312 | 0.0625 (≈ 0.0913 µM) | 0.25 (≈ 0.365 µM) | – | – | – | – | –
NCC(=O)Nc1nc(C(=O)OCC2=C(C(=O)O)N3C(=O)C(NC(=O)C(=NOC4(C(=O)O)CCC4)c4csc(N)n4)C3[S+]([O-])C2)cs1 (centres unmarked) [42 547] | 0.5 (≈ 0.718 µM) | – | ≤ 0.125 | 0.5 (≈ 0.718 µM) | 0.25 (≈ 0.359 µM) | 0.5 (≈ 0.718 µM) | 4 (≈ 5.74 µM) | 0.125 (≈ 0.179 µM) | ≤ 0.0312 | 2 (≈ 2.87 µM) | 0.125 (≈ 0.179 µM) | – | 0.25 (≈ 0.359 µM) | 0.25 (≈ 0.359 µM) | – | 0.0625 (≈ 0.0897 µM) | – | – | –
CC(C)(ON=C(C(=O)NC1C(=O)N2C(C(=O)O)=C(COC(=O)C3CCCNC3)C[S+]([O-])C12)c1csc(N)n1)C(=O)O (centres unmarked) [42 022] | 0.5 (≈ 0.816 µM) | – | – | 0.5 (≈ 0.816 µM) | 0.25 (≈ 0.408 µM) | 2 (≈ 3.26 µM) | 4 (≈ 6.53 µM) | 0.25 (≈ 0.408 µM) | 0.25 (≈ 0.408 µM) | ≤ 0.12 | ≤ 0.12 | – | ≤ 0.12 | 0.25 (≈ 0.408 µM) | ≤ 0.12 | ≤ 0.12 | – | – | –
CC(C)(O/N=C(\C(=O)NC1C(=O)N2C(C(=O)O)=C(COC(=O)c3cccc(CN)c3)C[S+]([O-])C12)c1csc(N)n1)C(=O)O (centres unmarked) [42 320] | – | ≤ 0.125 | ≤ 0.125 | 0.5 (≈ 0.788 µM) | – | – | 4 (≈ 6.3 µM) | 0.0625 (≈ 0.0985 µM) | 0.0625 (≈ 0.0985 µM) | 0.125 (≈ 0.197 µM) | ≤ 0.0312 | ≤ 0.0312 | 0.125 (≈ 0.197 µM) | – | – | – | ≤ 0.125 | ≤ 0.125 | ≤ 0.125
